The IC50 is the point on the concentration scale where inhibition reaches its midpoint. Read a low IC50 as greater potency.

Structures are written as SMILES. Where two headings read alike, the source gives them in different places.

The results in this text go back to patent US20260083692A1 (Strongbridge Dublin Limited, priority 2018, published 2026).

Assay [1] addresses T1, human OAT1 (Homo sapiens, UniProt Q4U2R8).
T1 sequence (Q4U2R8 1-563): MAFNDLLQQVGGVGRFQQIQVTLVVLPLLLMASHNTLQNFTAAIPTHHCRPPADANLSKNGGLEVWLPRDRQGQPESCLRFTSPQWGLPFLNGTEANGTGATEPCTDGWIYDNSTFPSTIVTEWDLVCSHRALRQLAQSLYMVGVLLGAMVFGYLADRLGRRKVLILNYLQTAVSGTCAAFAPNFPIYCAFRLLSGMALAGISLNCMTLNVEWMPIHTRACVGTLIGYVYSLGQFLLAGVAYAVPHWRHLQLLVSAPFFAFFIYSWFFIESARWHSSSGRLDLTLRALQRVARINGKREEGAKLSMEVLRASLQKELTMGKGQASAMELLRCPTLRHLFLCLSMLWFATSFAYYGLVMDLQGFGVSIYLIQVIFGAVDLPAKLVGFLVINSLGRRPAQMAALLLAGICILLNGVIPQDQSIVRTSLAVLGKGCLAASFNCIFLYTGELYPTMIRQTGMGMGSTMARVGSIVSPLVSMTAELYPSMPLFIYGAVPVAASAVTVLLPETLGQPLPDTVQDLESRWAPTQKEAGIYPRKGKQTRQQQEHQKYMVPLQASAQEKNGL
Briefly: cell-based.

In assay [2] the target is T1, human OAT1. The following applies: for Uptake (Average ± SD), OAT1: OAT1-expressing HEK293 cells; for Uptake (Average ± SD), Control: control HEK293 cells (vector only); for % control: relative to solvent control.

At human OAT1 [1], `NS(=O)(=O)c1cc(Cl)c(Cl)c(S(N)(=O)=O)c1` [Dichlorphenamide, 4,5-dichloro-1,3-benzenedisulfonamide] had an IC50 of 17.7 µM. The “Uptake (Average ± SD), OAT1” value at human OAT1 [2] (inhibitor 1 μM) was determined as 6.99 pmol/mg protein; on human OAT1 [2] (inhibitor 3 μM), 5.99 ± 1.16 pmol/mg protein; at human OAT1 [2] (inhibitor 10 μM) it was 3.70 ± 0.44 pmol/mg protein; on human OAT1 [2] (inhibitor 30 μM) it was 3.25 ± 0.39 pmol/mg protein; at human OAT1 [2] (inhibitor 100 μM), 1.79 ± 0.25 pmol/mg protein; at human OAT1 [2] (inhibitor 300 μM) it was 1.47 ± 0.12 pmol/mg protein. For the same molecule, the “Uptake (Average ± SD), OAT1” value on human OAT1 [2] (inhibitor 1000 μM) was found to be 0.669 ± 0.099 pmol/mg protein. Besides, the “Uptake (Average ± SD), Control” value amounted to 0.0857 pmol/mg protein on human OAT1 [2] (inhibitor 1 μM); 0.107 ± 0.040 pmol/mg protein on human OAT1 [2] (inhibitor 3 μM); 0.0571 ± 0.0257 pmol/mg protein at human OAT1 [2] (inhibitor 10 μM); 0.612 ± 0.907 pmol/mg protein on human OAT1 [2] (inhibitor 30 μM); 0.150 ± 0.026 pmol/mg protein on human OAT1 [2] (inhibitor 100 μM); 0.0452 ± 0.0082 pmol/mg protein at human OAT1 [2] (inhibitor 300 μM). Also, the “Uptake (Average ± SD), Control” value on human OAT1 [2] (inhibitor 1000 μM) turned out to be 0.119 ± 0.022 pmol/mg protein. Moreover, the “IC50 parameters: Max” value against human OAT1 [2] (fit of OAT1 inhibition curve) is recorded as “Max: 115%”. Besides, on human OAT1 [2] (fit of OAT1 inhibition curve), the “IC50 parameters: Min” value is reported as “Min: 0%”. Also, the “Background corrected uptake rate” value stood at 6.90 pmol/mg/min on human OAT1 [2] (inhibitor 1 μM); 5.88 pmol/mg/min on human OAT1 [2] (inhibitor 3 μM); 3.64 pmol/mg/min at human OAT1 [2] (inhibitor 10 μM); 2.64 pmol/mg/min at human OAT1 [2] (inhibitor 30 μM); 1.64 pmol/mg/min on human OAT1 [2] (inhibitor 100 μM); 1.42 pmol/mg/min at human OAT1 [2] (inhibitor 300 μM). In addition, the “Background corrected uptake rate” value on human OAT1 [2] (inhibitor 1000 μM) is recorded as 0.550 pmol/mg/min. Moreover, the “% control” value worked out at 112% on human OAT1 [2] (inhibitor 1 μM); 95.6% on human OAT1 [2] (inhibitor 3 μM); 59.2% on human OAT1 [2] (inhibitor 10 μM); 42.9% on human OAT1 [2] (inhibitor 30 μM); 26.7% at human OAT1 [2] (inhibitor 100 μM); 23.1% on human OAT1 [2] (inhibitor 300 μM). Moreover, at human OAT1 [2] (inhibitor 1000 μM), the “% control” value is given as 8.9%.

As for `CO[C@@H]1[C@@H](OC(N)=O)[C@@H](O)[C@H](Oc2ccc3c(O)c(NC(=O)c4ccc(O)c(CC=C(C)C)c4)c(=O)oc3c2C)OC1(C)C` [Novobiocin], on human OAT1 [2] (inhibitor 300 μM), the “Uptake (Average ± SD), OAT1” value worked out at 0.425 ± 0.071 pmol/mg protein; the “Uptake (Average ± SD), Control” value came out at 0.231 ± 0.048 pmol/mg protein; the “Background corrected uptake rate” value is 0.194 pmol/mg/min; the “% control” value turned out to be 3.2%.
